Values of other authors in patent US20170333424A1, “Amorphous Vortioxetine Hydrobromide” (Hexal AKTIENGESELLSCHAFT, priority 2014, published 2017).
Structures can show the parent of a compound that is named as a salt.

Settings: class II means high permeability, but low solubility

BCS class: class II
Compound: Cc1ccc(Sc2ccccc2N2CCNCC2)c(C)c1 [vortioxetine hydrobromide]
